Data taken from paper PMC7002685, “Inhibition of vascular calcification by inositol phosphates derivatized with ethylene glycol oligomers” (Nature Communications, 2020).
Where “and” joins values, the source holds several entries; their conditions need not be identical. Equal entries are not always repeated.

What was measured:
[1] = test system: transformation of CPP1 to CPP2 in pooled human serum; assay: In vitro serum calcification propensity (T50) screening assay; format: biochemical; design: key to T50: T50 in minutes (time to 50% CPP phase transition); conditions: for T50: one value per experiment; for activity/unit mass: mean c350 x mw (Na salt); for concentration upon which a T50 of 350 min is reached (c350), mean: mean of n experiments; for concentration upon which a T50 of 350 min is reached (c350), single experiment: one value per experiment (lab journal reference E05-E40)
Procedure: The compounds were ranked for calcification inhibition activity using a nanoparticle-based test, developed for risk stratification, which measures the propensity for calcification in patient serum. […] The time, after which 50% of CPP phase transition occurred (T50), was assessed by time-resolved spectrophotometry at 550 nm (Supplementary Fig. 1a).
The screening assay was performed as described previously. In brief, pooled human serum (H4522, Sigma-Aldrich) stored at −20 °C was thawed at 37 °C, centrifuged (10,000 × g, and 4 °C, 30 min) (5427R, Eppendorf, Switzerland), and sterile filtered (0.22 μm filter, Millipore, Merck KGaA) to remove potential cryoprecipitates (cleared human serum). The calcium solution was 40 mM CaCl2 (102382, Merck KGaA) in HBS, pH 7.4 (RT) (100 mM HEPES (H3375, Sigma-Aldrich) and 140 mM NaCl (1734712, Fisher Scientific, Hampton, NH, USA)). […] All salt solutions and buffers were double sterile filtered (0.22 µm) and pre-warmed to 37 °C prior to use. […] The plate was sealed with an adhesive film and the absorption at 550 nm was measured every 3 min with 1 min in-between shaking for a total of 300 cycles at 37 °C using the infinite M200 microplate reader (Tecan, Männedorf, Switzerland). An A550 vs. time graph was generated and T50 (min) (time at half-maximum transition from CPP1 to CPP2) values were derived by sigmoidal curve fit using Prism 8 (nonlinear regression in the log(agonist) vs. response–variable slope (four parameter mode) using the robust fit fitting method, GraphPad Software, San Diego, CA, USA). Activities between compounds were compared by generating a T50 (min) vs. concentration (µM) graph, calculating nonlinear regression and deriving the concentration required to delay T50 to 350 min (c350) using a standard equation for the dose–response curve, Eq. (1), whereby x = [compound], y = time (min), bottom = baseline response, top = maximum response, T50 = [drug] that leads to half-maximum response, and the hill slope is a factor that describes the steepness of the curve.1 y= bottom+top - bottom/1+T50/x^hillslope.

[2] = Serum calcification propensity assay after 4.5 h incubation in enzymatically active human serum; conditions: compound at c350 concentration, 37 °C; individual donors, Fig. 2e
CPP2 = assay: Competitive 18F-NaF binding assay on CPPs; design: species or system human
Procedure: A ^18F-NaF-based competitive binding assay was developed to indirectly assess the inhibitor affinity (IC50) to CPPs. The uptake mechanism of ^18F-NaF, a marker of micro-calcification activity by chemisorption onto hydroxyapatite crystals, is contingent on the rapid exchange of hydroxyl (OH^−) groups present on the hydroxyapatite surface (Ca5(PO4)3(OH)) by ^18F^− to form fluoroapatite (Ca5(PO4)3^18F)[34],[54].
Triplicate aliquots of CPP2s (20 µg Ca/mL) in 100 μL assay buffer (100 mM HBS, pH 7.4 (RT)) were incubated for 1 h at RT in the presence of increasing concentrations of compounds in 50 μL Milli-Q water and ^18F-NaF (1 nM) in 50 μL assay buffer, resulting in a total incubation volume of 200 μL (^18F-NaF was prepared using a FASTlab synthesizer (GE Healthcare, Little Chalfont, UK) and commercially available ^18F-NaF cassettes (GE Healthcare)). Maximum radiotracer binding was determined by incubating CPP2s with ^18F-NaF (1 nM) only. The reaction was terminated by rapid filtration through a SOLAμ™ SPE plate (HRP 2 mg/mL 96-well plate, 22 μm; Thermo Fisher Scientific). SPE individual column matrices were washed twice rapidly in assay buffer and radioactivity on the filters determined by an automatic gamma counter (Wizard2 Gamma Counter, Perkin Elmer, Waltham, MA, USA). […] IC50 is the concentration of […] that gives a response half way between the bottom and top parts of the curve. ^18F-NaF micro-PET/computed tomography (micro-PET/CT) was employed for ex vivo analysis of (OEG2)2-IP4’s engagement to target calcified human tissue explants, as described previously. […] Following incubations, samples were washed twice in 0.1 M PBS (1 min per wash) and mounted on a Petri dish for micro-PET/CT imaging (nanoPET/CT, Mediso, Budapest, Hungary). In total, seven samples from the femoral arteries of three patients with ischemic peripheral disease and three samples from native aortic valves of three patients undergoing valve replacement surgery were used. All samples were collected at the time of surgery and stored in 4% paraformaldehyde at RT until further use. All patients gave their written, informed consent. All procedures had local ethical approval (06/S0703/110, 12/WS/0227, 09/S0703/118, and 12/NW/0036). All studies were approved by East and West Scotland Research Ethics Committees, and all experiments were conducted according to the principles expressed in the Declaration of Helsinki.

With COCCOCCOCCOCCOCCOCCOCCOCCOCCOCCOCCO[C@@H]1[C@@H](OP(=O)(O)O)[C@H](OCCOCCOCCOCCOCCOCCOCCOCCOCCOCCOCCOC)[C@@H](OP(=O)(O)O)[C@@H](OP(=O)(O)O)[C@H]1OP(=O)(O)O [(OEG11)2-IP4, 4,6-Di-O-(methoxy-undecaethyleneglycol)-myo-inositol-1,2,3,5-tetrakis(phosphate)] the T50 ([1]; concentration 0.3 μM) was 225.5 and 216.3 and 217.233, the T50 ([1]; concentration 1 μM) was 254.967 and 243.067 and 240.833 and the T50 ([1]; concentration 3 μM) was 330.833 and 306.033 and 295.1. The T50 ([1]; concentration 5 μM) was 429.233 and 399.933 and 420.733, the “fold greater molar activity in delaying serum calcification propensity than IP6” value ([1]; from c350) was roughly 10 fold and the activity/unit mass [1] was 6.28 mg/L. The “concentration upon which a T50 of 350 min is reached (c350), mean” value [1] was 3.8 µM, the “concentration upon which a T50 of 350 min is reached (c350), single experiment” value [1] was 3.4 µM and 3.9 µM and the “ΔT50 after 4.5 h vs 0 h incubation in enzymatically active human serum” value [2] was -7 min and 2 min and 28 min and -24 min.

For NCCCC(O)(P(=O)(O)O)P(=O)(O)O [Alendronate, alendronate], the T50 ([1]; concentration 0.3 μM) was 213.8 and 221.6 and 208.733 and 230.4 and 221.333 and 196.833, the T50 ([1]; concentration 1 μM) was 222.967 and 230.933 and 225.333 and 238.6 and 229.833 and 230.667 and the T50 ([1]; concentration 3 μM) was 261.733 and 253 and 230.467 and 264.833 and 255.1 and 255.367. The T50 ([1]; concentration 10 μM) was 345.567 and 345.233 and 327.433 and 380.1 and 360.1 and 348.633, the T50 ([1]; concentration 30 μM) was 770.3 and 707.4 and the activity/unit mass [1] was 2.69 mg/L. For the same compound, the “concentration upon which a T50 of 350 min is reached (c350), mean” value [1] was 9.9 µM, the “concentration upon which a T50 of 350 min is reached (c350), single experiment” value [1] was 9.9 µM and 10.3 µM and 8.3 µM and 9.4 µM and 10.2 µM and the IC50 (CPP2; CPP2 20 µg Ca/mL, 18F-NaF 1 nM, 1 h RT, read-out: IC50 (reduction of 18F binding to CPP)) was 900 nM. The “18F-NaF percentage binding to CPP2” value (CPP2; concentration 0.75 (unit not given)) was 116.838% and 100.543% and 117.872%, the “18F-NaF percentage binding to CPP2” value (CPP2; concentration 2.5 (unit not given)) was 108.056% and 108.706% and 117.126% and the “18F-NaF percentage binding to CPP2” value (CPP2; concentration 7.5 (unit not given)) was 96.3113% and 120.411% and 97.661%. For the same compound, the “18F-NaF percentage binding to CPP2” value (CPP2; concentration 25 (unit not given)) was 95.6416% and 106.619%, the “18F-NaF percentage binding to CPP2” value (CPP2; concentration 75 (unit not given)) was 102.247% and 106.699% and 103.897% and the “18F-NaF percentage binding to CPP2” value (CPP2; concentration 250 (unit not given)) was 99.9294% and 104.809% and 85.4465%. The “18F-NaF percentage binding to CPP2” value (CPP2; concentration 1750 (unit not given)) was 35.8884% and 43.4211% and 42.6767%, the “18F-NaF percentage binding to CPP2” value (CPP2; concentration 2500 (unit not given)) was 62.647% and 51.2379% and 44.8192% and the “18F-NaF percentage binding to CPP2” value (CPP2; concentration 7500 (unit not given)) was 62.7542% and 48.4658% and 45.2944%. For the same compound, the “18F-NaF percentage binding to CPP2” value (CPP2; concentration 25000 (unit not given)) was 44.4078% and 32.6852% and 32.8795%, the “18F-NaF percentage binding to CPP2” value (CPP2; concentration 75000 (unit not given)) was 35.0722% and 24.2405% and 29.2905% and the “18F-NaF percentage binding to CPP2” value (CPP2; concentration 250000 (unit not given)) was 26.7145% and 19.4967% and 18.0105%. The “18F-NaF percentage binding to CPP2” value (CPP2; concentration 750000 (unit not given), replicates Fig. 2c) was 36.7136% and 30.5284% and 26.7151%.
